Tests used:
Type in all cases: biochemical
[1] = target: T1, Bovine pancreatic Trypsin (TPCK-treated) (Bos taurus, UniProt P00760); experiment: Bovine pancreatic trypsin inhibition, N-α-Benzoyl-L-Arg-pNA substrate; settings: the 5th table, unit inferred
T1 construct: from tissue; host or cells: bovine pancreas
T1 sequence (P00760 24-246): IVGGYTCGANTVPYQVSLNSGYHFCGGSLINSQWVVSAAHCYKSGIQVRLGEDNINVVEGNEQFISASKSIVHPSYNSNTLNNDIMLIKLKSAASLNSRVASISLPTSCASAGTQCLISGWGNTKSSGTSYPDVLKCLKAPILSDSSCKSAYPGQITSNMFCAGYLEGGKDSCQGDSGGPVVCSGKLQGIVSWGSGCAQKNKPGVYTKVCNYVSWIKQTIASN
Experimental: (§1) Protease inhibition was assayed according to published procedures with minor modifications using various proteases and specific chromogenic peptide p-nitroanilide substrates. Assays were performed in Costar ultra-low cluster 96-well microtiter plate (Costar Corning Corp., Cambridge Mass.). Each protease was incubated with various concentrations of the test compound for 15 min. at 37° C. or as otherwise indicated, in specific assay buffer, and the residual activity was then measured by addition of the substrate. p-Nitroaniline produced by the proteolysis was determined by measuring the change in absorbance at 405 nm on a SpectraMAX 340 plate reader (Molecular devices, Sunnyvale, Calif.).
(§2) 1. The inhibition constant, Ki is calculated from individual data points using the equation for a tight-binding inhibitor (See Beith, “Proteinase Inhibitors-Proceedings of 2nd Int. Res. Conference”, Fritz, et al. eds., New York, p.4463-4469 (1974)):
(§3) The Ki values are obtained by correcting Ki ′ values for the effect of substrate concentration according to: [formula]
(§4) 2. Other inhibition data (Ki>>[E]o), the Ki is calculated from using the equations for a competitive inhibitor: [formula]
C. Bovine Pancreatic Trypsin
Bovine pancreatic Trypsin (TPCK-treated) activity was determined by using N-α-Benzoyl-L-Arg-pNA in 50 mM Tris-HCl, pH 8.2, 20 mM CaCl2 (See Somorin, et al., J. Biochem. 85, 157-162 (1979)).
(§5) The inhibition constant (Ki) of the test compounds against each proteolytic enzyme was determined according to Zitnik et al., Biochem. Biophys. Res. Commun. 232, 687-697 (1997)).

[2] = target: T2, Human plasma thrombin (Homo sapiens, UniProt P00734); experiment: Human plasma thrombin inhibition, H-D-Phe-Pip-Arg-pNA substrate; settings: the 5th table, unit inferred
T2 construct: from tissue; host or cells: human plasma
Experimental: as §1, §2, §3, §4
Human plasma thrombin activity was determined by using H-D-Phe-Pip-Arg-pNA in 50 mM Tris-HCl, pH 8.3, 100 mM NaCl, 1% BSA (See Lottenberg, et al., Meth. Enzymol. 80, 341-361 (1981)).
as §5

[3] = target: T3, Human plasma factor Xa (Homo sapiens, UniProt P00742); experiment: Human plasma factor Xa inhibition, N-Benzoyl-Ile-Glu-Gly-Arg-pNA substrate; settings: 50 mM Tris-HCl, pH 7.8, 200 mM NaCl, 0.05% BSA
T3 construct: from tissue; host or cells: human plasma
T3 sequence (P00742 235-488 limits assumed): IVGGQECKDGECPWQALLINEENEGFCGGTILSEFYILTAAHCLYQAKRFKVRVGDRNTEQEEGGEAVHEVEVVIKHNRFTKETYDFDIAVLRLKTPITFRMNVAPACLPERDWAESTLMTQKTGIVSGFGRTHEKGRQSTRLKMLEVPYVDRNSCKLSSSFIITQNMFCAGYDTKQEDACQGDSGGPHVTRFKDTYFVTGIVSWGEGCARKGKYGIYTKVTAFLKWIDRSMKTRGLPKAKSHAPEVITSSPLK
T3 sequence (P00742 41-179 partner limits assumed): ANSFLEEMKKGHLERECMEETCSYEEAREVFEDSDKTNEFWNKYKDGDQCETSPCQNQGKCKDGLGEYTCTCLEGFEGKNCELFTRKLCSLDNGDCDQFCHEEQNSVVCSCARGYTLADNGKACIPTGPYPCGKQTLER
Experimental: as §1
(§6) 1. The inhibition constant, Ki is calculated from individual data points using the equation for a tight-binding inhibitor (See Beith, “Proteinase Inhibitors-Proceedings of 2nd Int. Res. Conference”, Fritz, et al. eds., New York, p.4463-4469 (1974)): […]
(§7) 2. Other inhibition data (Ki>>[E]o), the Ki is calculated from using the equations for a competitive inhibitor: [formula] […]
Human plasma factor Xa activity was determined by using N-Benzoyl-Ile-Glu-Gly-Arg-pNA in 50 mM Tris-HCl, pH 7.8, 200 mM NaCl, 0.05% BSA (See Lottenberg, et al. Meth. Enzymol. 80, 341-361 (1981)).
(§8) The inhibition constant (Ki) of the test compounds against each proteolytic enzyme was determined according to Zitnik et al., Biochem. Biophys. […]

[4] = target: T4, Human plasma kallikrein (Homo sapiens, UniProt P03952); experiment: Human plasma kallikrein inhibition, H-D-Prolyl-Phe-Arg-pNA substrate; settings: 50 mM Tris-HCl, pH 7.8, 200 mM NaCl, 0.05% BSA
T4 construct: from tissue; host or cells: human plasma
T4 sequence (P03952 391-638 limits assumed): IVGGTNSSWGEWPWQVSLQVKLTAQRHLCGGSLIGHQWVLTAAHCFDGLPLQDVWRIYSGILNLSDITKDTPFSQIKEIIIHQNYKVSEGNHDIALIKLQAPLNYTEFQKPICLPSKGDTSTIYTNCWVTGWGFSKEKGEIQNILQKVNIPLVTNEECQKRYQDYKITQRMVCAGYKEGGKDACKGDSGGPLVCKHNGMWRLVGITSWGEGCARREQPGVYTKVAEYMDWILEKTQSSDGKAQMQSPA
T4 sequence (P03952 20-390 partner limits assumed): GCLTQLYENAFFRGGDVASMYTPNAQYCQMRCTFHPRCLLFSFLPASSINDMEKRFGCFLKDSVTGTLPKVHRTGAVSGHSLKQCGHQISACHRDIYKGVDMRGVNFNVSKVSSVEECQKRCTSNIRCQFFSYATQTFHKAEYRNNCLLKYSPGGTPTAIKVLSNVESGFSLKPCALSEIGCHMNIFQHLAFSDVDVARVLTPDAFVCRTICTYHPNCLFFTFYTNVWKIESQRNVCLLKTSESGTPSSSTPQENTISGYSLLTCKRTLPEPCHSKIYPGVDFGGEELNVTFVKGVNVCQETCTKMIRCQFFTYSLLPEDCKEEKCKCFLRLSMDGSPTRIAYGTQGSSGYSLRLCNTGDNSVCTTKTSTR
Experimental: as §1, §6, §7
Human plasma and r-tissue kallikrein activity were determined in 50 mM Tris-HCl1, pH 7.8, 200 mM NaCl, 0.05% BSA by using H-D-Prolyl-Phe-Arg-pNA and DL-Val-Leu-Arg-pNA, respectively (See Lottenberg, et al., Meth. Enzymol. 80, 341-361 (1981)). […]

[5] = target: T5, Human Neutrophil elastase (Homo sapiens, UniProt P08246); experiment: Human neutrophil elastase inhibition, pyroGlu-Pro-Val-pNA substrate; settings: 100 mM Tris-HCl, pH 8.3, 0.96 M NaCl, 1% BSA
T5 construct: from tissue; host or cells: human neutrophils
T5 sequence (P08246 30-267): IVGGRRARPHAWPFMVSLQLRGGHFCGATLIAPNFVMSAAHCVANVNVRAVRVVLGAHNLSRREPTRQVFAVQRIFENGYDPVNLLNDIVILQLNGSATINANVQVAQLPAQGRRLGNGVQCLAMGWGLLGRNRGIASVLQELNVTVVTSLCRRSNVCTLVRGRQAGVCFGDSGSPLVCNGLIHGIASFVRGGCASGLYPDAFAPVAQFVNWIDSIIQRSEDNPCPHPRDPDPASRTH
Experimental: as §1, §6, §7
Human Neutrophil elastase activity was determined by using pyroGlu-Pro-Val-pNA in 100 mM Tris-HCl, pH 8.3, 0.96 M NaCl, 1% BSA (See Kramps, et al. Scand. J. Clin. Lab. Invest. 43, 427-432 (1983)).
as §8

- Ki [1]: 2.4 µM
- Ki [2]: 25.8 µM
- Ki [3]: 17.7 µM
- Ki [4]: 1.6 µM
- Ki [5]: > 100 µM
Structure (SMILES): Cc1cc2cc(CNC(=O)Cc3cc4cc(C(=N)N)ccc4s3)ccc2[nH]1 [drawing 17 Benzthiophene 5-carboxamidine n=1]

Reference: patent US6362216B1, “Compounds which inhibit tryptase activity” (Array Biopharma Inc., priority 1998, dated 2002)
